{
  "source": "patent US20250235410A1",
  "about": "“WATER-SOLUBLE CANNABIDIOL MICROCAPSULES AND PREPARATION METHOD THEREOF” (Northeast Agricultural University, priority 2022, published 2025)",
  "key": {"[1]": {"experiment": "ABTS+ radical cation scavenging rate", "type": "biochemical", "settings": "P<0.05", "protocol": "(§1) The antioxidant activity of glycosylation product-based water-soluble cannabidiol microcapsules is analyzed through radical scavenging rate. The scavenging ability of 1,1-Diphenyl-2-picrylhydrazyl (DPPH) and, 2′-azino-bis (3-ethylbenzothiazoline-6-sulfonic acid (ABTS^+) radical cation is mainly studied.\nDetermination of ABTS^+ radical scavenging rate: 10 mg of ABTS and 2.9 mg of potassium persulfate are taken, dissolved in 10 mL of 0.01 mol/L sodium phosphate buffer, and stored in the dark at 25° C. for 15 h for later use. 2.5 mL ABTS solution is taken, added with 20 mL of 0.01 mol/L sodium phosphate buffer, and diluted with distilled water so that the absorbance at 734 nm is 0.7, to obtain an ABTS analysis solution. 1 mL of CBD with different concentrations and methanol solutions of microcapsules with different concentrations are taken respectively, added with 2 mL of above ABTS analysis solution to the test tube for reacting for 10 min, and then 95% ethanol is used as reference solution to read the absorbance value at 734 nm. The absorbance value of the sample mixed with ABTS analysis solution is marked as A, the absorbance value of the sample mixed with 95% ethanol solution is Ai, and the absorbance value of the single ABTS analysis solution is Aj. The calculation formula is as follows: […]"}, "[2]": {"experiment": "Release in simulated gastric juice", "type": "in vitro ADME", "settings": "1 h in simulated gastric juice", "protocol": "An appropriate amount of samples are weighed and released in simulated gastric juice. Samples are taken according to the time gradient of 0.5, 1.0, 1.5, 2.0, 2.5 and 3.0 h, and the cumulative release rate of CBD is determined."}, "[3]": {"experiment": "Influence of environmental pH value on stability (retention rate of CBD)", "type": "physicochemical", "settings": "4 °C, 12 h", "protocol": "(§2) Determination of retention rate of CBD in MRPs-CBD microcapsules: the above method to determine CBD content in MRPs-CBD microcapsules is used to accurately determine the initial CBD content in MRPs-CBD microcapsules and the CBD content retained in microcapsules under different treatment methods, and the retention rate of CBD in microcapsules is calculated according to the following formula: […]\nA proper amount of samples are weighed and dissolved in distilled water, and the pH values of the solutions are adjusted as 1, 2, 3, 4, 5, 6, 7, 8, 9, 10, 11 and 12 respectively, and samples are placed in a sealed and dark environment at 4° C. for 12 h, then taken out and its retention rate of CBD is determined."}, "[4]": {"experiment": "Influence of temperature on stability (retention rate of CBD)", "type": "physicochemical", "settings": "4-100 °C, sealed, dark, 12 h", "protocol": "Determination of retention rate of CBD in MRPs-CBD microcapsules: the above method to determine CBD content in MRPs-CBD microcapsules is used to accurately determine the initial CBD content in MRPs-CBD microcapsules and the CBD content retained in microcapsules under different treatment methods, and the retention rate of CBD in microcapsules is calculated according to the following formula:\nAn appropriate amount of samples are weighed, placed in a sealed and dark environment at 4° C., 25° C., 37° C., 50° C., 80° C. and 100° C. for 12 h and taken out, and the retention rate of CBD is determined."}, "[5]": {"experiment": "Release in simulated intestinal juice", "type": "in vitro ADME", "settings": "1 h in simulated intestinal juice", "protocol": "An appropriate amount of samples are weighed and released in simulated intestinal juice. Samples are taken according to the time gradient of 0.5, 1.0, 1.5, 2.0, 2.5 and 3.0 h, and the cumulative release rate of CBD is determined."}, "[6]": {"experiment": "DPPH radical scavenging rate", "type": "biochemical", "settings": "P<0.05", "protocol": "as §1\nDetermination of DPPH radical scavenging rate: 1 mL of CBD with different concentrations, methanol solution of microcapsules with different concentrations and 4 mL of 0.1 mmol/L DPPH solution (DPPH dissolved in 95% ethanol) are mixed evenly, and kept in the dark for 30 min at room temperature. Using 95% ethanol as reference solution, the absorbance at 517 nm is read. The absorbance value of the sample mixed with DPPH ethanol solution is recorded as A, the absorbance value of the sample mixed with 95% ethanol solution is Ai, and the absorbance value of the single DPPH ethanol solution is Aj. The calculation formula is as follows: […]"}, "[7]": {"experiment": "Influence of oxygen on stability (retention rate of CBD)", "type": "physicochemical", "settings": "15th day, dark, aerobic", "protocol": "as §2\nAn appropriate amount of samples are weighed, placed at 4° C. and 25° C. for 15 days in the dark and aerobic conditions, and taken out at on 1st, 3rd, 5th, 7th, 9th, 12th and 15th day to determine the retention rate of CBD. See FIG. 8A and FIG. 8B for the test results."}, "[8]": {"experiment": "Influence of incandescent light on stability (retention rate of CBD)", "type": "physicochemical", "settings": "15th day of incandescent light (25 W), 4 °C, sealed", "protocol": "as §2\nA proper amount of samples are weighed, sealed, placed under incandescent light (25 W) at 4° C. for 15 d, and taken out on the 1st, 3rd, 6th, 9th, 12th and 15th day respectively, and the retention rate of CBD is determined."}},
  "data": [
    {"smiles": "C=C(C)[C@@H]1CCC(C)=C[C@H]1c1c(O)cc(CCCCC)cc1O", "note": "[unencapsulated CBD, Cannabidiol]", "values": [
      {"measurement": "ABTS+ scavenging rate, change with increase of CBD concentration", "setting": "[1]", "result": "increase significantly"},
      {"measurement": "fate of CBD in simulated gastric juice", "setting": "[2]", "result": "completely digested and degraded"},
      {"measurement": "retention rate of CBD, trend", "setting": "[3]; environmental pH increases from 1 to 6", "result": "increase significantly"},
      {"measurement": "retention rate of CBD, trend", "setting": "[3]; environmental pH increases from 8 to 12", "result": "decrease significantly"},
      {"measurement": "retention rate of CBD, trend with increase of temperature", "setting": "[4]", "result": "continuous downward trends"},
      {"measurement": "fate of CBD in simulated intestinal juice", "setting": "[5]", "result": "completely digested and degraded"},
      {"measurement": "DPPH scavenging rate, change with increase of CBD concentration", "setting": "[6]", "result": "increase significantly"},
      {"measurement": "retention rate of CBD", "setting": "[7]; 4 °C", "result": "43.87±1.83", "unit": "%"},
      {"measurement": "retention rate of CBD", "setting": "[7]; 25 °C", "result": "38.85±1.76", "unit": "%"},
      {"measurement": "retention rate of CBD", "setting": "[8]", "result": "24.53±1.56", "unit": "%"}
    ]}
  ]
}
